Test results taken from US7744927B2, “Methods of promoting hematopoietic and mesenchymal cell proliferation and differentiation” (University of Southern California, priority 1997, dated 2010).

Legend:
[1] = test system: Murine Peritoneal Macrophages; assay: Phagocytosis of opsonized yeast by murine peritoneal macrophages; assay type: cell-based, C57B1/6 mice; details: for # Macrophages with Yeast, Yeast # 0 / # Macrophages with Yeast, Yeast # 1-3 / # Macrophages with Yeast, Yeast # 4-6 / # Macrophages with Yeast, Yeast # 7-9 / # Yeast/MO / % Ingesting: 4 hours
Description: Resident peritoneal macrophages have very little phagocytic activity. Exposure of macrophages to inflammatory or activating agents will increase this macrophage function. Resident peritoneal macrophages were harvested from C57B1/6 mice or Sprague Dawley rats and resuspended at a concentration of 1×10^6 cells/ml in phosphate buffered saline (PBS). Five separate 0.5 ml cell aliquots were placed on a glass coverslip in a 35 mm petri dish. Prior to incubation, either 0.5 ml of PBS, AII, or AII analogues or fragments at between 1-1000 ug/ml final concentration was added to the individual cover slips. The dishes containing the cover slips were then incubated at 37° C. for 4 hours, after which the cover slips were washed 3 to 6 times with PBS. Opsonized yeast particles (Sigma Chemical Co.) (yeast opsonized with adult serum from the same species as that under study) were added to the cover slips and incubated for 2 hours, after which the cover slips were again washed with PBS and inverted onto a glass slide. The number of macrophages that ingested yeast and the number of yeast per macrophage ingested was then determined microscopically. At least 100 macrophages per coverslip were counted. The data from this study are summarized in Tables 3 and 4 and FIGS. 1 and 2.

Human PBMC = assay: Proliferation of human PBMC, 3H-thymidine incorporation with or without pokeweed mitogen; assay type: cell-based; details: for Stimulation Index (SI): stimulated counts / counts without mitogen
Description: Upon stimulation of lymphocytes with mitogen or antigen, these cells undergo blastogenesis and proliferation. In the absence of such stimuli, proliferation is seldom observed. One method to measure cellular proliferation in a short term assay is via measurement of the amount of the nucleotide thymidine that is incorporated into newly synthesized DNA. The effect of AII on the proliferation of human PBMC in the presence and absence of pokeweed mitogen (“PWM”) was assessed.
Human PBMC were collected from normal volunteers and isolated via Ficoll Hypaque (Sigma Chemical, St. Louis) density centrifugation. After isolation of the buffy coat, the cells were washed 3× to remove the Ficoll Hypaque, counted in trypan blue (0.01%) and resuspended at a concentration of 1×10^6 cells/ml in RPMI 1640 containing 10% fetal calf serum and antibiotics. A 100 μl aliquot of cells was added to each well. Thereafter, various concentrations (0.1 to 1000 μg/ml final concentration) of AII in RPMI 1640 containing 10% FCS and antibiotics were added to various wells in triplicate. To the appropriate wells, PWM (20 μg/ml final concentration) was added. These plates were incubated at 37° C. in 5% CO2 for 48 hours. Subsequently, 0.5 μCi of ^3H-thymidine was added to each well, which were incubated at 37° C. for an additional 24 hours prior to harvest by a multiwell automated sample harvester (Skatron) onto glass fiber filters. These filters were dried, placed in scintillation fluid and the amount of thymidine incorporated was determined by beta counting.

Asp-Arg-Val-Tyr-Ile-His-Pro-Phe [AII, known pressor agent, commercially available]
phagocytic capability of peritoneal macrophages ([1]; 10 μg/ml or greater): tremendously increased
# Macrophages with Yeast, Yeast # 0 ([1]; AII 1 μg/ml): 100
# Macrophages with Yeast, Yeast # 1-3 ([1]; AII 1 μg/ml): 1
# Macrophages with Yeast, Yeast # 4-6 ([1]; AII 1 μg/ml): 0
# Macrophages with Yeast, Yeast # 7-9 ([1]; AII 1 μg/ml): 0
# Yeast/MO ([1]; AII 1 μg/ml): 0.01
% Ingesting ([1]; AII 1 μg/ml): 1%
# Macrophages with Yeast, Yeast # 0 ([1]; AII 10 μg/ml): 100
# Macrophages with Yeast, Yeast # 1-3 ([1]; AII 10 μg/ml): 3
# Macrophages with Yeast, Yeast # 4-6 ([1]; AII 10 μg/ml): 4
# Macrophages with Yeast, Yeast # 7-9 ([1]; AII 10 μg/ml): 0
# Yeast/MO ([1]; AII 10 μg/ml): 0.24
% Ingesting ([1]; AII 10 μg/ml): 6.5%
# Macrophages with Yeast, Yeast # 0 ([1]; AII 100 μg/ml): 100
# Macrophages with Yeast, Yeast # 1-3 ([1]; AII 100 μg/ml): 10
# Macrophages with Yeast, Yeast # 4-6 ([1]; AII 100 μg/ml): 10
# Macrophages with Yeast, Yeast # 7-9 ([1]; AII 100 μg/ml): 0
# Yeast/MO ([1]; AII 100 μg/ml): 0.58
# Yeast/MO ([1]; AII 1000 μg/ml (highest concentration)): 1
# Macrophages with Yeast, Yeast # 0 ([1]; AII 1000 μg/ml): 100
# Macrophages with Yeast, Yeast # 1-3 ([1]; AII 1000 μg/ml): 20
# Macrophages with Yeast, Yeast # 4-6 ([1]; AII 1000 μg/ml): 20
# Macrophages with Yeast, Yeast # 7-9 ([1]; AII 1000 μg/ml): 0
Stimulation Index (SI) (Human PBMC; AII Concentration 0.1, Experiment 1 (donor 1)): 3.54
Stimulation Index (SI) (Human PBMC; AII Concentration 0.1, Experiment 2 (donor 2)): 38.13
cpm 3H-Thymidine Incorporated (Human PBMC; AII Concentration 0.1, PWM, Experiment 1 (donor 1)): 1329.0 cpm
cpm 3H-Thymidine Incorporated (Human PBMC; AII Concentration 0.1, PWM, Experiment 2 (donor 2)): 2135.0 cpm
Stimulation Index (SI) (Human PBMC; AII Concentration 1, Experiment 1 (donor 1)): 5.88
Stimulation Index (SI) (Human PBMC; AII Concentration 1, Experiment 2 (donor 2)): 62.42
cpm 3H-Thymidine Incorporated (Human PBMC; AII Concentration 1, PWM, Experiment 1 (donor 1)): 1411.2 cpm
cpm 3H-Thymidine Incorporated (Human PBMC; AII Concentration 1, PWM, Experiment 2 (donor 2)): 2996.0 cpm
Stimulation Index (SI) (Human PBMC; AII Concentration 10, Experiment 1 (donor 1)): 5.34
Stimulation Index (SI) (Human PBMC; AII Concentration 10, Experiment 2 (donor 2)): 75.88
cpm 3H-Thymidine Incorporated (Human PBMC; AII Concentration 10, PWM, Experiment 1 (donor 1)): 1427.0 cpm
cpm 3H-Thymidine Incorporated (Human PBMC; AII Concentration 10, PWM, Experiment 2 (donor 2)): 3946.0 cpm
Stimulation Index (SI) (Human PBMC; AII Concentration 100, Experiment 1 (donor 1)): 11.41
Stimulation Index (SI) (Human PBMC; AII Concentration 100, Experiment 2 (donor 2)): 69.39
cpm 3H-Thymidine Incorporated (Human PBMC; AII Concentration 100, PWM, Experiment 1 (donor 1)): 1552.1 cpm
cpm 3H-Thymidine Incorporated (Human PBMC; AII Concentration 100, PWM, Experiment 2 (donor 2)): 3747.0 cpm
Stimulation Index (SI) (Human PBMC; AII Concentration 1000, Experiment 1 (donor 1)): 15.48
Stimulation Index (SI) (Human PBMC; AII Concentration 1000, Experiment 2 (donor 2)): 89.63
cpm 3H-Thymidine Incorporated (Human PBMC; AII Concentration 1000, PWM, Experiment 1 (donor 1)): 1551.5 cpm
cpm 3H-Thymidine Incorporated (Human PBMC; AII Concentration 1000, PWM, Experiment 2 (donor 2)): 4302.0 cpm
thymidine incorporated in response to PWM (Human PBMC; PWM 20 μg/ml, two donors): increase the amount of thymidine incorporated
thymidine incorporation (Human PBMC; absence of mitogen): no increase in thymidine incorporation
